In patent publication US20180050093A1, “LEPTIN ACTIVE PEPTIDE HAVING D HELIX REGION MUTATIONS, CODING GENE THEREOF, AND APPLICATION THEREOF” (SUN YAT-SEN UNIVERSITY, priority 2015, published 2018):

Test system: 3T3-L1 preadipocytes
Test: In-vitro lipid-lowering (adipocyte-degrading) activity analysis, MTT detection
Type: cell-based
Conditions: for adipocyte lysis activity vs. negative control (Control, PBS): FIG. 2 mark a
Procedure: Preadipocytes: induced preadipocytes stage; D0-D2: 0-2nd day of induced differentiation (an early stage of differentiation); D9: the 9th day of induced differentiation (a mature adipocyte stage).
1.2 In-Vitro Lipid-Lowering Activity Analysis of the Leptin Active Peptide
Lipid degradation activity of the synthesized leptin active peptide having helix D region mutation is analyzed on a cellular level by taking a 3T3-L1 preadipocyte line as a model. Specific operations are as follows:
b: an early differentiation stage D0-D2 (0-2nd day of induced differentiation); and
c: a mature adipocyte stage D9 (the 9th day of induced differentiation);
a. leptin active peptide having helix D region mutation (PEP-D): diluted to […] with purified water and preserved at −20° C. for later use. After an experiment is started, working concentrations have 3 concentration gradients, that is, 10^−6M, 10^−9M and 10^−11M;
b. positive control. I: H-LEP, recombinant human-derived leptin protein (10221-HNAE, Beijing Sino Biological Inc.), diluted to 10^−6M with purified water and preserved at −20° C. for later use. After an experiment is started, the working concentration is 10^−9M;
c. positive control 2: Ros (rosiglitazone,R2408,Sigma), diluted to a stock solution with a concentration of 2518 μM with DMSO and preserved at −20° C. for later use. After an experiment is started, the stock solution is diluted to a working solution of 0.5 μM with cell culture fluid;
d. negative control (Control): equivalent quantity of PBS
(1) Inoculating 3T3-L1 preadipocytes in corning cell bind 96-well plates (totally inoculated with 3 plates, respectively plate a, plate b and plate c), wherein the inoculation density is 4500 cells/well; and marking, and standing and culturing at 37° C. in a 5% CO2 incubator. Each sample of each plate is operated repeatedly for 3 times, and the whole experiment is repeated for 3 times;
(2) Continuously culturing for 48 hours after the cells are merged to 100% (enabling the cells to exit from a growth cycle, and starting induced differentiation); and
i, taking out the plate a; respectively adding different amounts of leptin active peptide having helix D region mutation (PEP-D) to enable the working concentrations to be respectively 3 concentration gradients, that is, 10^−6M, 10^−9M and 10^−11M; setting 2 positive controls, a negative control (PBS) and a blank control (3 repeated holes are set for each sample), and continuously standing and culturing at 37° C. in the 5% CO2 incubator.
ii, when culturing to 45 hours (that is, 3 hours before the end of drug treatment), taking out the plate a, and measuring MTT (preadipocytes). Specific operations: adding 20 μL of 5 mg/mL of MTT solution into each well, continuously standing and culturing at 37° C. in the 5% CO2 incubator for 3 hours, sucking and discarding the culture solution in the wells, adding 150 μL of DMSO into each well, horizontally shaking for 10 min, detecting a light absorption value at 492 nm by a microplate reader, and drawing a growth curve;
i, taking out the plate b; adding the differentiation induced liquid I (D0); respectively adding the leptin active peptide having helix D region mutation (PEP-D); setting 2 positive controls, a negative control (PBS) and a blank control (3 repeated holes are set for each sample), and continuously standing and culturing at 37° C. in the 5% CO2 incubator.
ii, when culturing to 45 hours (that is, 3 hours before the end of drug treatment), taking out the plate b, and measuring MTT (at the early differentiation stage, D0-D2). Specific operations: adding 20 μL, of 5 mg/mL of MTT solution into each well; continuously standing and culturing at 37° C. in the 5% CO2 incubator for 3 hours; sucking and discarding the culture solution in the wells; adding 150 μL of DMSO into each well; horizontally shaking for 10 min; detecting a light absorption value at 492 nm by the microplate reader; and drawing a growth curve; […]

[1] = P<0.05, H-LEP 10^−9M, Ros 0.5 μM

Row | Compound | adipocyte lysis activity vs. negative control (Control, PBS) [1] | adipocyte lysis activity vs. H-LEP (FIG. 2 mark b, P<0.05) | adipocyte lysis activity vs. Ros (FIG. 2 mark c, P<0.05) | adipocyte-degrading activity compared with the positive controls H-LEP and Ros (MTT, three cell differentiation stages (preadipocytes, early differentiation D0-D2, mature adipocyte D9), PEP-D 10^−6M, 10^−9M, 10^−11M, H-LEP 10^−9M, Ros 0.5 μM) | concentration dependence of lipid-lowering activity (MTT, working concentrations 10^−6M, 10^−9M and 10^−11M) | cell lysis effects at cell stages (preadipocytes stage, differentiation stage (D0-D2), mature adipocyte stage (D9))
1 | CN(CCOc1ccc(CC2SC(=O)NC2=O)cc1)c1ccccn1 (stereo not shown) [Ros, rosiglitazone, reference compound] | obviously better than that of the negative control |  |  |  |  | 
2 | H-LEP: recombinant human-derived leptin protein (10221-HNAE, Beijing Sino Biological Inc.), positive control | obviously better than that of the negative control |  |  |  |  | 
3 | STEVVALDGLQGSLQTMLLQLEYS (An amino acid sequence of the leptin active peptide having helix D region mutation) [PEP-D] |  | obviously better than that of the H-LEP | obviously better than that of the Ros | obviously better than that of positive control-human-derived leptin protein (H-LEP) and a commercially available drug rosiglitazone (Ros) | obvious concentration dependence | obvious cell lysis effects at three stages
